In ChEMBL document CHEMBL1201861, “Genomics of Drug Sensitity in Cancer screening data, Wellcome Trust Sanger Institute”:
pIC50: −log10 of the molar value.

Key:
Experiment in all cases: cells
[1] = test system: ES7; type: functional, cell-based, Homo sapiens; details: Homo sapiens, ES7;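 further: growth inhibition of cultured human ES7 cells, read out as cell viability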
Description: SANGER: Inhibition of human ES7 cell growth in a cell viability assay.

[2] = test system: EW-13; type: functional, cell-based; details: Homo sapiens;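 further: growth inhibition of EW-13 cells, read out with a cell viability assay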
Description: SANGER: Inhibition of human EW-13 cell growth in a cell viability assay.

[3] = test system: SCH; type: functional, cell-based, Homo sapiens; details: Homo sapiens, SCH;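 further: growth inhibition of human SCH cells, read out in a cell viability assay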
Description: SANGER: Inhibition of human SCH cell growth in a cell viability assay.

[4] = test system: RPMI-2650; type: functional, cell-based, Homo sapiens; details: Homo sapiens, RPMI-2650
Description: SANGER: Inhibition of human RPMI-2650 cell growth in a cell viability assay.

[5] = test system: RCM-1; type: functional, cell-based, Homo sapiens; details: Homo sapiens, RCM-1;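 further: growth inhibition of the RCM-1 line, determined with a cell viability readout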
Description: SANGER: Inhibition of human RCM-1 cell growth in a cell viability assay.

[6] = test system: KNS-42; type: functional, cell-based, Homo sapiens; details: Homo sapiens, KNS-42;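 further: growth inhibition of KNS-42 cells, read out with a cell viability assay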
Description: SANGER: Inhibition of human KNS-42 cell growth in a cell viability assay.

[7] = test system: D-392MG; type: functional, cell-based, Homo sapiens; details: Homo sapiens, D-392MG
[8] = test system: SH-4; type: functional, cell-based, Homo sapiens; details: Homo sapiens, SH-4;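 further: growth inhibition of SH-4 cells, read out with a cell viability assay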
Description: SANGER: Inhibition of human SH-4 cell growth in a cell viability assay.

[9] = test system: KARPAS-45; type: functional, cell-based; details: Homo sapiens;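 further: inhibition of cell line growth, read out through a viability assay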
Description: SANGER: Inhibition of human KARPAS-45 cell growth in a cell viability assay.

[10] = test system: MEG-01; type: functional, cell-based; details: Homo sapiens;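 further: growth inhibition of MEG-01 cells, read out by a cell viability assay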
Description: SANGER: Inhibition of human MEG-01 cell growth in a cell viability assay.

[11] = test system: KYSE-520 cell line; type: functional, cell-based, Homo sapiens; details: Homo sapiens, KYSE-520;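 further: growth inhibition of human KYSE-520 cells, read out with a viability assay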
Description: SANGER: Inhibition of human KYSE-520 cell growth in a cell viability assay.

[12] = test system: TE-12; type: functional, cell-based; details: Homo sapiens;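 further: growth inhibition of TE-12 cells, read out by a cell viability assay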
Description: SANGER: Inhibition of human TE-12 cell growth in a cell viability assay.

[13] = test system: C-33-A; type: functional, cell-based, Homo sapiens; details: Homo sapiens, C-33-A;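 further: cell viability assay measuring growth inhibition of C-33-A cells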
Description: SANGER: Inhibition of human C-33-A cell growth in a cell viability assay.

[14] = test system: ABC-1; type: functional, cell-based, Homo sapiens; details: Homo sapiens, ABC-1;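 further: growth inhibition of human ABC-1 cells, read out by a cell viability assay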
Description: SANGER: Inhibition of human ABC-1 cell growth in a cell viability assay.

[15] = test system: J-RT3-T3-5; type: functional, cell-based; details: Homo sapiens;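 further: cell viability assay measuring growth inhibition of human J-RT3-T3-5 cells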
Description: SANGER: Inhibition of human J-RT3-T3-5 cell growth in a cell viability assay.

[16] = test system: GR-ST; type: functional, cell-based; details: Homo sapiens
Description: SANGER: Inhibition of human GR-ST cell growth in a cell viability assay.

[17] = test system: KLE; type: functional, cell-based, Homo sapiens; details: Homo sapiens, KLE;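 further: growth inhibition of human KLE cells, read out with a cell viability assay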
Description: SANGER: Inhibition of human KLE cell growth in a cell viability assay.

[18] = test system: CAL-12T; type: functional, cell-based, Homo sapiens; details: Homo sapiens, CAL-12T;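 further: growth inhibition of human CAL-12T cells, read out with a cell viability assay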
Description: SANGER: Inhibition of human CAL-12T cell growth in a cell viability assay.

[19] = test system: HLE; type: functional, cell-based, Homo sapiens; details: Homo sapiens, HLE;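 further: growth inhibition of human HLE cells, read out by a cell viability assay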
Description: SANGER: Inhibition of human HLE cell growth in a cell viability assay.

[20] = test system: EKVX; type: functional, cell-based, Homo sapiens; details: Homo sapiens, EKVX;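 further: growth inhibition of human EKVX cells, read out with a cell viability assay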
Description: SANGER: Inhibition of human EKVX cell growth in a cell viability assay.

[21] = test system: COLO-320-HSR; type: functional, cell-based; details: Homo sapiens;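 further: growth inhibition of COLO-320-HSR cells, determined with a cell viability assay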
Description: SANGER: Inhibition of human COLO-320-HSR cell growth in a cell viability assay.

[22] = test system: MZ2-MEL; type: functional, cell-based, Homo sapiens; details: Homo sapiens, MZ2-MEL;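 further: growth inhibition of MZ2-MEL cells read out with a cell viability assay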
Description: SANGER: Inhibition of human MZ2-MEL cell growth in a cell viability assay.

[23] = test system: ATN-1; type: functional, cell-based; details: Homo sapiens;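 further: growth inhibition of human ATN-1 cells, read out with a cell viability assay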
Description: SANGER: Inhibition of human ATN-1 cell growth in a cell viability assay.

[24] = test system: COR-L105; type: functional, cell-based, Homo sapiens; details: Homo sapiens, COR-L105;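 further: cell growth inhibition determined with a viability assay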
Description: SANGER: Inhibition of human COR-L105 cell growth in a cell viability assay.

[25] = test system: SW-620; type: functional, cell-based, Homo sapiens; details: Homo sapiens, SW-620;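 further: growth inhibition of human SW-620 cells, measured by a cell viability assay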
Description: SANGER: Inhibition of human SW620 cell growth in a cell viability assay.

[26] = test system: NCI-H2228; type: functional, cell-based, Homo sapiens; details: Homo sapiens, NCI-H2228;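 further: growth inhibition of human NCI-H2228 cells, read out by a cell viability assay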
Description: SANGER: Inhibition of human NCI-H2228 cell growth in a cell viability assay.

[27] = test system: Huh-7; type: functional, cell-based, Homo sapiens; details: Homo sapiens, Huh-7;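 further: HuH-7 cell growth inhibition, read out with a cell viability assay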
Description: SANGER: Inhibition of human HuH-7 cell growth in a cell viability assay.

[28] = test system: RS4-11; type: functional, cell-based; details: Homo sapiens;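 further: growth inhibition of RS4-11 cells, read out by a cell viability assay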
Description: SANGER: Inhibition of human RS4-11 cell growth in a cell viability assay.

[29] = test system: SJSA-1; type: functional, cell-based, Homo sapiens; details: Homo sapiens, SJSA-1;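 further: growth inhibition of human SJSA-1 cells, read out through a cell viability measurement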
Description: SANGER: Inhibition of human SJSA-1 cell growth in a cell viability assay.

[30] = test system: NCI-H1581; type: functional, cell-based, Homo sapiens; details: Homo sapiens, NCI-H1581;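 further: cell growth inhibition read out by a viability assay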
Description: SANGER: Inhibition of human NCI-H1581 cell growth in a cell viability assay.

[31] = test system: HPAF-II; type: functional, cell-based, Homo sapiens; details: Homo sapiens, HPAF-II;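 further: growth inhibition of HPAF-II cells, read out with a cell viability assay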
Description: SANGER: Inhibition of human HPAF-II cell growth in a cell viability assay.

[32] = test system: SHP77; type: functional, cell-based, Homo sapiens, SHP-77; details: Homo sapiens, SHP77;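 further: growth inhibition of human SHP-77 cells measured by a cell viability assay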
Description: SANGER: Inhibition of human SHP-77 cell growth in a cell viability assay.

[33] = test system: GCT; type: functional, cell-based, Homo sapiens; details: Homo sapiens, GCT;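 further: GCT cell line proliferation inhibition, read out with a cell viability assay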
Description: SANGER: Inhibition of human GCT cell growth in a cell viability assay.

[34] = test system: SW626; type: functional, cell-based, Homo sapiens; details: Homo sapiens, SW626;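 further: growth inhibition of SW626 cells, measured with a cell viability assay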
Description: SANGER: Inhibition of human SW626 cell growth in a cell viability assay.

[35] = test system: NCI-H1792; type: functional, cell-based, Homo sapiens; details: Homo sapiens, NCI-H1792;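 further: growth inhibition of human NCI-H1792 cells, read out as cell viability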
Description: SANGER: Inhibition of human NCI-H1792 cell growth in a cell viability assay.

[36] = test system: LC-2-ad; type: functional, cell-based, Homo sapiens; details: Homo sapiens, LC-2-ad;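 further: growth inhibition of human LC-2-ad cells, read out with a cell viability assay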
Description: SANGER: Inhibition of human LC-2-ad cell growth in a cell viability assay.

[37] = test system: A-431; type: functional, cell-based, Homo sapiens; details: Homo sapiens, A-431;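 further: growth inhibition of A-431 cells, determined with a cell viability read-out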
Description: SANGER: Inhibition of human A431 cell growth in a cell viability assay.

[38] = test system: HT; type: functional, cell-based; details: Homo sapiens
Description: SANGER: Inhibition of human HT cell growth in a cell viability assay.

[39] = test system: SK-UT-1; type: functional, cell-based, Homo sapiens; details: Homo sapiens, SK-UT-1;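 further: growth inhibition of SK-UT-1 cells, measured by a cell viability assay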
Description: SANGER: Inhibition of human SK-UT-1 cell growth in a cell viability assay.

[40] = test system: DU-4475; type: functional, cell-based; details: Homo sapiens
Description: SANGER: Inhibition of human DU-4475 cell growth in a cell viability assay.

[41] = test system: EW-24; type: functional, cell-based; details: Homo sapiens;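 further: human EW-24 cancer cell line, growth inhibition read out via a cell viability assay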
Description: SANGER: Inhibition of human EW-24 cell growth in a cell viability assay.

[42] = test system: OVCAR-4; type: functional, cell-based, Homo sapiens; details: Homo sapiens, OVCAR-4;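 further: growth inhibition of human OVCAR-4 cells, measured with a cell viability assay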
Description: SANGER: Inhibition of human OVCAR-4 cell growth in a cell viability assay.

[43] = test system: SF-126; type: functional, cell-based, Homo sapiens; details: Homo sapiens, SF-126;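 further: growth inhibition of human SF126 cells, read out with a cell viability assay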
Description: SANGER: Inhibition of human SF126 cell growth in a cell viability assay.

[44] = test system: SW 962; type: functional, cell-based, Homo sapiens; details: Homo sapiens, SW 962;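 further: growth inhibition of human SW962 cells, read out by a cell viability assay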
Description: SANGER: Inhibition of human SW962 cell growth in a cell viability assay.

[45] = test system: SK-MEL-28; type: functional, cell-based; details: Homo sapiens;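 further: growth inhibition of human SK-MEL-28 cells, read out with a cell viability assay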
Description: SANGER: Inhibition of human SK-MEL-28 cell growth in a cell viability assay.

[46] = test system: MKN-28; type: functional, cell-based, Homo sapiens; details: Homo sapiens, MKN-28;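 further: cell viability assay read-out, IC50 reflects suppression of growth of human MKN-28 cells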
Description: SANGER: Inhibition of human MKN28 cell growth in a cell viability assay.

[47] = test system: SW756; type: functional, cell-based, Homo sapiens; details: Homo sapiens, SW756;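 further: growth inhibition of human SW756 cells, read out with a cell viability assay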
Description: SANGER: Inhibition of human SW756 cell growth in a cell viability assay.

[48] = test system: SW13; type: functional, cell-based, Homo sapiens; details: Homo sapiens, SW13;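 further: IC50 is inhibition of SW13 cell growth, read out with a cell viability assay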
Description: SANGER: Inhibition of human SW13 cell growth in a cell viability assay.

[49] = test system: MZ1-PC; type: functional, cell-based, Homo sapiens; details: Homo sapiens, MZ1-PC;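 further: cell viability assay measuring growth inhibition of human MZ1-PC cells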
Description: SANGER: Inhibition of human MZ1-PC cell growth in a cell viability assay.

[50] = test system: KYSE-150 cell line; type: functional, cell-based, Homo sapiens; details: Homo sapiens, KYSE-150;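 further: growth inhibition of human KYSE-150 cells, read out with a cell viability assay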
Description: SANGER: Inhibition of human KYSE-150 cell growth in a cell viability assay.

[51] = test system: LU-139; type: functional, cell-based; details: Homo sapiens
Description: SANGER: Inhibition of human LU-139 cell growth in a cell viability assay.

With O=C(c1cc(Cc2n[nH]c(=O)c3ccccc23)ccc1F)N1CCN(C(=O)C2CC2)CC1 [OLAPARIB] as the compound, how does the pIC50 [1] read?
Its pIC50 is under 5.30.

What about the pIC50 [2] of the same compound?
Its pIC50 is under 5.30.

What about the pIC50 [3] of the same compound?
The pIC50 was under 5.30.

What about the pIC50 [4] of the same compound?
Its pIC50 is under 5.30.

What about the pIC50 [5] of the same compound?
The pIC50 was under 5.30.

And the pIC50 [6]?
The pIC50 was under 5.30.

What about the pIC50 [7] of the same compound?
Its pIC50 is under 5.30.

And the pIC50 [8]?
Its pIC50 is under 5.30.

And the pIC50 [9]?
Its pIC50 is under 5.30.

And the pIC50 [10]?
Its pIC50 is under 5.30.

What about the pIC50 [11] of the same compound?
The pIC50 was under 5.30.

And the pIC50 [12]?
Its pIC50 is under 5.30.

And the pIC50 [13]?
The pIC50 was under 5.30.

And the pIC50 [14]?
The pIC50 was under 5.30.

And the pIC50 [15]?
Its pIC50 is under 5.30.

And the pIC50 [16]?
The pIC50 was under 5.30.

What about the pIC50 [17] of the same compound?
Its pIC50 is under 5.30.

And the pIC50 [18]?
Its pIC50 is under 5.30.

What about the pIC50 [19] of the same compound?
Its pIC50 is under 5.30.

And the pIC50 [20]?
Its pIC50 is under 5.30.

And the pIC50 [21]?
Its pIC50 is under 5.30.

And the pIC50 [22]?
The pIC50 was under 5.30.

What about the pIC50 [23] of the same compound?
The pIC50 was under 5.30.

And the pIC50 [24]?
Its pIC50 is under 5.30.

And the pIC50 [25]?
The pIC50 was under 5.30.

And the pIC50 [26]?
The pIC50 was under 5.30.

What about the pIC50 [27] of the same compound?
The pIC50 was under 5.30.

What about the pIC50 [28] of the same compound?
Its pIC50 is under 5.30.

And the pIC50 [29]?
Its pIC50 is under 5.30.

What about the pIC50 [30] of the same compound?
Its pIC50 is under 5.30.

What about the pIC50 [31] of the same compound?
Its pIC50 is under 5.30.

And the pIC50 [32]?
Its pIC50 is under 5.30.

And the pIC50 [33]?
Its pIC50 is under 5.30.

What about the pIC50 [34] of the same compound?
Its pIC50 is under 5.30.

And the pIC50 [35]?
Its pIC50 is under 5.30.

What about the pIC50 [36] of the same compound?
The pIC50 was under 5.30.

What about the pIC50 [37] of the same compound?
Its pIC50 is under 5.30.

And the pIC50 [38]?
The pIC50 was under 5.30.

And the pIC50 [39]?
The pIC50 was under 5.30.

And the pIC50 [40]?
The pIC50 was under 5.30.

What about the pIC50 [41] of the same compound?
Its pIC50 is under 5.30.

What about the pIC50 [42] of the same compound?
Its pIC50 is under 5.30.

What about the pIC50 [43] of the same compound?
Its pIC50 is under 5.30.

What about the pIC50 [44] of the same compound?
Its pIC50 is under 5.30.

And the pIC50 [45]?
The pIC50 was under 5.30.

And the pIC50 [46]?
Its pIC50 is under 5.30.

What about the pIC50 [47] of the same compound?
The pIC50 was under 5.30.

What about the pIC50 [48] of the same compound?
The pIC50 was under 5.30.

And the pIC50 [49]?
The pIC50 was under 5.30.

And the pIC50 [50]?
The pIC50 was under 5.30.

And the pIC50 [51]?
The pIC50 was 5.32.

With CN(Cc1cnc2nc(N)nc(N)c2n1)c1ccc(C(=O)N[C@@H](CCC(=O)O)C(=O)O)cc1 [METHOTREXATE] as the compound, how does the pIC50 [1] read?
The pIC50 was 6.83.

What about the pIC50 [2] of the same compound?
The pIC50 was 7.14.

And the pIC50 [3]?
Its pIC50 is under 6.70.

What about the pIC50 [4] of the same compound?
Its pIC50 is under 6.70.

What about the pIC50 [5] of the same compound?
The pIC50 was under 6.70.

What about the pIC50 [6] of the same compound?
The pIC50 was under 6.70.

And the pIC50 [7]?
Its pIC50 is 6.80.

What about the pIC50 [8] of the same compound?
Its pIC50 is under 6.70.

And the pIC50 [9]?
Its pIC50 is 6.91.

And the pIC50 [10]?
The pIC50 was 7.00.

What about the pIC50 [11] of the same compound?
Its pIC50 is under 6.70.

What about the pIC50 [12] of the same compound?
The pIC50 was under 6.70.

What about the pIC50 [13] of the same compound?
Its pIC50 is under 6.70.

What about the pIC50 [14] of the same compound?
Its pIC50 is under 6.70.

What about the pIC50 [15] of the same compound?
Its pIC50 is 7.71.

What about the pIC50 [16] of the same compound?
The pIC50 was 7.44.

What about the pIC50 [17] of the same compound?
The pIC50 was under 6.70.

And the pIC50 [18]?
The pIC50 was under 6.70.

What about the pIC50 [19] of the same compound?
Its pIC50 is under 6.70.

And the pIC50 [20]?
The pIC50 was under 6.70.

And the pIC50 [21]?
The pIC50 was 7.28.

What about the pIC50 [22] of the same compound?
Its pIC50 is under 6.70.

And the pIC50 [23]?
The pIC50 was 8.41.

And the pIC50 [24]?
The pIC50 was under 6.70.

What about the pIC50 [25] of the same compound?
The pIC50 was under 6.70.

And the pIC50 [26]?
Its pIC50 is under 6.70.

What about the pIC50 [27] of the same compound?
Its pIC50 is under 6.70.

What about the pIC50 [28] of the same compound?
The pIC50 was 8.15.

And the pIC50 [29]?
Its pIC50 is under 6.70.

And the pIC50 [30]?
Its pIC50 is under 6.70.

And the pIC50 [31]?
Its pIC50 is under 6.70.

And the pIC50 [32]?
Its pIC50 is under 6.70.

What about the pIC50 [33] of the same compound?
Its pIC50 is under 6.70.

What about the pIC50 [34] of the same compound?
Its pIC50 is under 6.70.

What about the pIC50 [35] of the same compound?
Its pIC50 is 6.94.

And the pIC50 [36]?
Its pIC50 is under 6.70.

What about the pIC50 [37] of the same compound?
The pIC50 was under 6.70.

What about the pIC50 [38] of the same compound?
Its pIC50 is 6.87.

What about the pIC50 [39] of the same compound?
The pIC50 was under 6.70.

What about the pIC50 [41] of the same compound?
The pIC50 was under 6.70.

And the pIC50 [42]?
The pIC50 was under 6.70.

And the pIC50 [43]?
Its pIC50 is under 6.70.

And the pIC50 [44]?
Its pIC50 is under 6.70.

And the pIC50 [45]?
The pIC50 was under 6.70.

What about the pIC50 [46] of the same compound?
The pIC50 was under 6.70.

And the pIC50 [47]?
Its pIC50 is under 6.70.

What about the pIC50 [48] of the same compound?
Its pIC50 is under 6.70.

And the pIC50 [49]?
Its pIC50 is under 6.70.

And the pIC50 [50]?
Its pIC50 is 6.94.

And the pIC50 [51]?
Its pIC50 is under 6.70.
